Source: US6194581A, “Substituted pyridines useful as modulators of acetylcholine receptors” (Merck & Co., Inc., priority 1998, dated 2001)
Where a name gives a salt, the structure may show the parent alone. Read-outs that look alike come from different tables or passages of the source.

Assays:
[1] = tested on: rat striatal slices (3H-dopamine release); format: cell-based
Protocol: (§1) Measurement of ^3 H-dopamine release from rat striatal slices was performed according to the method of Sacaan et al. (J. Neurochem. 59:245 (1992)). Male Sprague-Dawley rats (250-300 g) were decapitated and the striata or olfactory tubercles dissected quickly on a cold glass surface. The tissue was chopped to a thickness of 300 μm with a McIlwain tissue chopper. After chopping again at right angles the tissue was dispersed and incubated for 10 min. at 37° C. in oxygenated Kreb's buffer. ^3 H-Dopamine (40 Ci/mmol, NEN- Dupont, Boston, Mass.) was added (50 nM) and the tissue was incubated for 30 min. in Kreb's buffer containing 10 μM pargyline and 0.5 mM ascorbic acid. Aliquots of the minced tissue were then transferred to chambers of a Brandel Superfusion system in which the tissue was supported on Whatman GF/B filter discs. The tissue was then superfused with buffer at a constant flow rate of 0.3 ml/min by means of a Brandel peristaltic pump. The perfusate was collected in plastic scintillation vials in 3-min fractions, and the radioactivity was estimated by scintillation spectrophotometry. The superfusate for the first 120 min was discarded. After two baseline fractions had been collected, the superfusion buffer was switched to fresh buffer with or without compound of interest. At the end of the experiment the filter and the tissue were removed, and the radiolabeled neurotransmitter content was estimated after extraction into scintillation fluid. The fractional effiux of radiolabeled neurotransmitter was estimated as the amount of radioactivity in the perfusate fraction relative to the total amount in the tissue.
(§2) The results of studies of the effects of an invention compound (as compared to the effect of nicotine) on the release of neurotransmitters from rat brain slices are presented in Table II. The results presented in the Table are expressed as the percent fractional release.

[2] = tested on: rat olfactory tubercles (3H-dopamine release); format: cell-based
Protocol: as §1, §2

[3] = biological target: T1, nicotinic acetylcholine receptor (Rattus norvegicus, UniProt P09483+P12390); test: 3H-nicotine binding/displacement, rat cerebral membranes
T1 construct: Synaptic membranes were prepared by homogenizing the cortical tissue; from tissue; host or cells: cerebral cortex synaptic membranes of male Sprague-Dawley rats
Protocol: ^3 H-Nicotine binding to rat cerebral membranes was performed according to modifications of the method of Flyn and Mash (J. Neurochem. 47:1948 (1986)). ^3 H-Nicotine (80 ci/mmol; New England Nuclear Corporation, Boston, Mass.) was used as the ligand for nicotinic acetylcholine receptor binding assays. All other reagents were purchased from the Sigma Chemical Co. (St. Louis, Mo.).
Male Sprague-Dawley rats (250-400 gm) were sacrificed by decapitation, the brains removed and the cerebral cortex dissected on ice. Synaptic membranes were prepared by homogenizing the cortical tissue in 20 volumes of ice-cold modified Tris buffer (50 mM Tris pH 7.4, 120 mM NaCl, 5 mM KCl, 2 mM EDTA, 1 mM PMSF) with a polytron (20 sec at setting 5-6) followed by centrifugation (15 min at 25,000×g) at 4° C. The resultant pellet was rehomogenized and centrifuged twice. The final pellet was resuspended in ice-cold assay buffer (50 mM Tris pH 7.4, 120 mM NaCl, 5 mM KCl, 2 mM CaCl2, 1 MM MgCl2) at a concentration of membrane equivalent to 1 gm wet weight cortex per 10 ml buffer. After protein determination the final membrane preparation was diluted with buffer to 3 mg protein/ml. This membrane preparation was used in either the fresh state or frozen (-70° C.) then thawed.
The binding assay is performed manually using 96-well plates, or using a Biomek automated work station (Beckman Instrument Co.). ^3 H-Nicotine was diluted in assay buffer to give a final concentration of 1.9 nM. The Biomek automated work station was programmed to automatically transfer 750 μl of assay buffer with ^3 H-nicotine, 230 μl of membrane preparation and 20 μl of solution containing the compound of interest in assay buffer, DMSO, ethanol:DMSO (1:1) or appropriate vehicle to the 96-well plate. Atropine was added to the incubation buffer at a final concentration of 3 μM to block binding to muscarinic acetylcholine receptor sites. The plates were maintained on ice for 60 min and the tissue-bound radioactivity was separated from the free by rapid filtration in a Brandel Harvester onto GF/C filters presoaked in 0.5% polyethyleneimine for at least 2 hr. The filters were washed with 4×2 ml of ice-cold assay buffer and filters were transferred to vials to which 4 ml of scintillation cocktail was added. The radioactivity was measured in a LS-6500 Beckman Liquid Scintillation Counter in an autodpm mode. Data were analyzed by log-logit transformation or non-linear regression analysis (e.g., employing GraphPad Prism, available from GraphPad Software, San Diego, Calif.) to give IC50 values. Non-specific binding was defined by 10 μM cytisine.

[4] = biological target: muscarinic acetylcholine receptors; test: 3H-QNB (quinuclidinyl benzilate) displacement, rat cerebral membranes; format: binding
[5] = tested on: rat thalamus slices (3H-norepinephrine release); format: cell-based
Protocol: as §1
(§3) Following essentially the same procedure as set forth in the preceding paragraph, the amount of ^3 H-norepinephrine released from rat hippocampus, thalamus and prefrontal cortex slices superfused with buffer containing (or lacking) compounds of interest was also measured.
as §2

[6] = tested on: rat prefrontal cortex slices (3H-norepinephrine release); format: cell-based
Protocol: as §1, §3, §2

[7] = tested on: rat hippocampus slices (3H-norepinephrine release); format: cell-based
Protocol: as §1, §3, §2

[8] = rat striatum slices, compound concentration not given
[9] = rat olfactory tubercles, compound concentration not given
[10] = displacement of 1.9 nM 3H-nicotine, rat cerebral membranes, 3 μM atropine, read-out: IC50, Nicotine
[11] = displacement of 60 pM 3H-QNB, rat cerebral membranes
[12] = rat thalamus slices, compound concentration not given
[13] = rat prefrontal cortex slices, compound concentration not given
[14] = rat hippocampus slices, compound concentration not given

T1 sequence (P09483 31-630): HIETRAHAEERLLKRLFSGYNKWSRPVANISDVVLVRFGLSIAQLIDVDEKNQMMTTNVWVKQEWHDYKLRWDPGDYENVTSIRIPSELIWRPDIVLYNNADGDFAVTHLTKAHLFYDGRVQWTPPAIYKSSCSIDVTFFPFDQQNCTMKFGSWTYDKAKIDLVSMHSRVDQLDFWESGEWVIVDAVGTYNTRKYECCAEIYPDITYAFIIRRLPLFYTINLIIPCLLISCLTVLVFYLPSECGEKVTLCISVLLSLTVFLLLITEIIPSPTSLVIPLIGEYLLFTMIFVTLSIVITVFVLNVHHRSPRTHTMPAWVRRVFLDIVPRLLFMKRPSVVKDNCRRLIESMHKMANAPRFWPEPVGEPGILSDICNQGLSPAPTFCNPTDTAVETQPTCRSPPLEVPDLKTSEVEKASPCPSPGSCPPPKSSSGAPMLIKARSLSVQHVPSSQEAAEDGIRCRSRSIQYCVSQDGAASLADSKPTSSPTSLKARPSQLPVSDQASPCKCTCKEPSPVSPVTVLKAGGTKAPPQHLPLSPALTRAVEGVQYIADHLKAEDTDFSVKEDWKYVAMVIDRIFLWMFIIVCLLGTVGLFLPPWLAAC
T1 sequence (P12390 26-500 limits assumed): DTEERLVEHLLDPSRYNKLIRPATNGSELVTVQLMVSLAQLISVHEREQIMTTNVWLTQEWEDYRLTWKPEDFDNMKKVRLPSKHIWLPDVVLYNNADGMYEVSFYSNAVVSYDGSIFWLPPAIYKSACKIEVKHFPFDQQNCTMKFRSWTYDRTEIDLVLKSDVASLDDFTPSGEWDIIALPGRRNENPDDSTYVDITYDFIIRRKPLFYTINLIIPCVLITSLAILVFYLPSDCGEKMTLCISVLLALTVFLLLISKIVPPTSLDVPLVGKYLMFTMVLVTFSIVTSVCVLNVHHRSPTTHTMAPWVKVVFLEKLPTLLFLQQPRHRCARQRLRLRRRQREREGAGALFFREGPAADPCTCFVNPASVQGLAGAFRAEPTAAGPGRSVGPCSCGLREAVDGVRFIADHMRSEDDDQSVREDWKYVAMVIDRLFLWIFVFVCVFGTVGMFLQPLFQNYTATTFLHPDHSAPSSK

Oc1ccc(-c2cncc(CN3CCCC3)c2)cc1Cl [5-(4-Hydroxy-3-chlorophenyl)-3-(N-pyrrolidinomethyl)pyridine]
3H-Dopamine, Striatum, percent fractional release [1, 8]: 6.00% | 3H-Dopamine, Olfactory Tubercles, percent fractional release [2, 9]: 8.75% | IC50 [3, 10]: 0.043 µM | IC50 [4, 11]: > 10 µM | 3H-Norepinephrine, Thalamus, percent fractional release [5, 12]: 1.44% | 3H-Norepinephrine, Prefrontal Cortex, percent fractional release [6, 13]: 1.82% | 3H-Norepinephrine, Hippocampus, percent fractional release [7, 14]: 1.91%

Oc1ccc(-c2cncc(CN3CCCC3)c2)cc1 [5-(4-hydroxyphenyl)-3-(N-pyrrolidinomethyl)pyridine]
3H-Dopamine, Striatum, percent fractional release [1, 8]: 4.32% | 3H-Dopamine, Olfactory Tubercles, percent fractional release [2, 9]: 6.12% | IC50 [3, 10]: 0.082 µM | IC50 [4, 11]: > 10 µM | 3H-Norepinephrine, Thalamus, percent fractional release [5, 12]: 2.36% | 3H-Norepinephrine, Prefrontal Cortex, percent fractional release [6, 13]: 1.24% | 3H-Norepinephrine, Hippocampus, percent fractional release [7, 14]: 1.06%

c1ccc(-c2cncc(CN3CCC3)c2)cc1 [5-Phenyl-3-(N-azetidinomethyl)pyridine fumarate]
IC50 [3, 10]: 1.2 µM | IC50 [4, 11]: 6 µM

c1ccc(-c2cncc(CN3CCCC3)c2)cc1 [5-Phenyl-3-(N-pyrrolidinomethyl)pyridine]
3H-Dopamine, Striatum, percent fractional release [1, 8]: 2.48% | 3H-Dopamine, Olfactory Tubercles, percent fractional release [2, 9]: 3.68% | IC50 [3, 10]: 0.53 µM | IC50 [4, 11]: 11.2 µM | 3H-Norepinephrine, Thalamus, percent fractional release [5, 12]: 1.42% | 3H-Norepinephrine, Prefrontal Cortex, percent fractional release [6, 13]: 1.43% | 3H-Norepinephrine, Hippocampus, percent fractional release [7, 14]: 0.74%

C#Cc1cncc(CN2CCCC2)c1 [5-ethynyl-3-(N-pyrrolidinomethyl)pyridine]
3H-Dopamine, Striatum, percent fractional release [1, 8]: 2.09% | 3H-Dopamine, Olfactory Tubercles, percent fractional release [2, 9]: 0.91% | IC50 [3]: 0.041 µM | IC50 [4]: > 100 µM | 3H-Norepinephrine, Thalamus, percent fractional release [5, 12]: 0.67% | 3H-Norepinephrine, Prefrontal Cortex, percent fractional release [6, 13]: 0.84% | 3H-Norepinephrine, Hippocampus, percent fractional release [7, 14]: 0.97%

c1cncc(CNC2CC2)c1 [N-Cyclopropyl-3-picolylamine]
IC50 [3, 10]: 40 µM | IC50 [4, 11]: > 100 µM

CN(Cc1cccnc1)C1CC1 [N-Methyl-N-cyclopropyl-3-picolylamine]
IC50 [3, 10]: 16 µM | IC50 [4, 11]: > 100 µM

CN(CCCc1ccccc1)Cc1cccnc1 [N-Methyl-N-phenylpropyl-3-picolylamine]
IC50 [3, 10]: 34 µM | IC50 [4, 11]: 36 µM

c1ccc(CCCNCc2cccnc2)cc1 [N-Phenylpropyl-3-picolylamine]
IC50 [3, 10]: 20 µM | IC50 [4, 11]: 29 µM

CN1CCCC1c1cccnc1 (stereo not drawn) [Nicotine, reference compound]
3H-Dopamine, Striatum, percent fractional release [1]: 2.3 ± 0.7 | 3H-Dopamine, Olfactory Tubercles, percent fractional release [2]: 2.7 ± 0.4 | 3H-Norepinephrine, Thalamus, percent fractional release [5]: 1.7 | 3H-Norepinephrine, Prefrontal Cortex, percent fractional release [6]: 2.2 ± 0.2 | 3H-Norepinephrine, Hippocampus, percent fractional release [7]: 8.2 ± 1.5

CC(c1cccnc1)N(C)C (stereo not drawn) [α-Methyl-N,N-dimethyl-3-picolylamine]
IC50 [3, 10]: 1.9 µM | displacement of ligand with 100 μM of compound (Quinuclidinyl benzilate) ([4]; 100 μM compound, 3H-QNB, rat cerebral membranes): Less than 20%

CC(NC1CC1)c1cccnc1 (stereo not drawn) [α-Methyl-N-cyclopropyl-3-picolylamine]
IC50 [3, 10]: > 100 µM | IC50 [4, 11]: > 100 µM

CC(C)NC(C)c1cccnc1 (stereo not drawn) [α-Methyl-N-isopropyl-3-picolylamine]
IC50 [3, 10]: 19 µM | IC50 [4, 11]: > 100 µM

CNC(C)c1cccnc1 (stereo not drawn) [α-Methyl-N-methyl-3-picolylamine]
IC50 [3, 10]: 3.6 µM | IC50 [4, 11]: > 100 µM
